{"source": "patent US20040063662A1", "about": "“Selenophene anti-tumor agents” (priority 1996, published 2004)", "key": {"[1]": {"tested_on": "K-562", "experiment": "NCI human tumor cell panel: K-562 (Leukemia)", "format": "cell-based", "settings": "K562, K-562, Leukemia"}, "[2]": {"tested_on": "MOLT-4", "experiment": "NCI human tumor cell panel: MOLT-4 (Leukemia)", "format": "cell-based", "settings": "MOLT-4, Leukemia"}, "[3]": {"tested_on": "SR", "experiment": "NCI human tumor cell panel: SR (Leukemia)", "format": "cell-based", "settings": "Leukemia"}, "[4]": {"tested_on": "A549/ATCC", "experiment": "NCI human tumor cell panel: A549/ATCC (Non-Small Cell Lung Cancer)", "format": "cell-based", "settings": "Non-Small Cell Lung Cancer"}, "[5]": {"tested_on": "EKVX", "experiment": "NCI human tumor cell panel: EKVX (Non-Small Cell Lung Cancer)", "format": "cell-based", "settings": "Non-Small Cell Lung Cancer, read-out: Log10 GI50 (converted)"}, "[6]": {"tested_on": "HOP-62", "experiment": "NCI human tumor cell panel: HOP-62 (Non-Small Cell Lung Cancer)", "format": "cell-based", "settings": "HOP-62, Non-Small Cell Lung Cancer, read-out: Log10 TGI (converted)"}, "[7]": {"tested_on": "NCI-H23", "experiment": "NCI human tumor cell panel: NCI-H23 (Non-Small Cell Lung Cancer)", "format": "cell-based", "settings": "NCI-H23, Non-Small Cell Lung Cancer, read-out: Log10 TGI (converted)"}, "[8]": {"tested_on": "NCI-H460", "experiment": "NCI human tumor cell panel: NCI-H460 (Non-Small Cell Lung Cancer)", "format": "cell-based", "settings": "NCI-H460, Non-Small Cell Lung Cancer"}, "[9]": {"tested_on": "HCT-116", "experiment": "NCI human tumor cell panel: HCT-116 (Colon Cancer)", "format": "cell-based", "settings": "HCT-116, Colon Cancer"}, "[10]": {"tested_on": "HCT-15", "experiment": "NCI human tumor cell panel: HCT-15 (Colon Cancer)", "format": "cell-based", "settings": "HCT-15, Colon Cancer"}, "[11]": {"tested_on": "HT29", "experiment": "NCI human tumor cell panel: HT29 (Colon Cancer)", "format": "cell-based", "settings": "HT-29, HT29, Colon Cancer"}, "[12]": {"tested_on": "KM12", "experiment": "NCI human tumor cell panel: KM12 (Colon Cancer)", "format": "cell-based", "settings": "KM12, Colon Cancer"}, "[13]": {"tested_on": "SW-620", "experiment": "NCI human tumor cell panel: SW-620 (Colon Cancer)", "format": "cell-based", "settings": "SW-620, Colon Cancer"}, "[14]": {"tested_on": "SF-295", "experiment": "NCI human tumor cell panel: SF-295 (CNS Cancer)", "format": "cell-based", "settings": "SF-295, CNS Cancer"}, "[15]": {"tested_on": "SNB-75", "experiment": "NCI human tumor cell panel: SNB-75 (CNS Cancer)", "format": "cell-based", "settings": "SNB-75, CNS Cancer"}, "[16]": {"tested_on": "LOX IMVI", "experiment": "NCI human tumor cell panel: LOX IMVI (Melanoma)", "format": "cell-based", "settings": "Melanoma"}, "[17]": {"tested_on": "MALME-3M", "experiment": "NCI human tumor cell panel: MALME-3M (Melanoma)", "format": "cell-based", "settings": "MALME-3M, Melanoma"}, "[18]": {"tested_on": "UACC-257", "experiment": "NCI human tumor cell panel: UACC-257 (Melanoma)", "format": "cell-based", "settings": "UACC-257, Melanoma"}, "[19]": {"tested_on": "UACC-62", "experiment": "NCI human tumor cell panel: UACC-62 (Melanoma)", "format": "cell-based", "settings": "UACC-62, Melanoma"}, "[20]": {"tested_on": "IGROV1", "experiment": "NCI human tumor cell panel: IGROV1 (Ovarian Cancer)", "format": "cell-based", "settings": "IGROV-1, IGROV1, Ovarian Cancer"}, "[21]": {"tested_on": "OVCAR-5", "experiment": "NCI human tumor cell panel: OVCAR-5 (Ovarian Cancer)", "format": "cell-based", "settings": "OVCAR-5, Ovarian Cancer"}, "[22]": {"tested_on": "OVCAR-8", "experiment": "NCI human tumor cell panel: OVCAR-8 (Ovarian Cancer)", "format": "cell-based", "settings": "OVCAR-8, Ovarian Cancer"}, "[23]": {"tested_on": "786-0", "experiment": "NCI human tumor cell panel: 786-0 (Renal Cancer)", "format": "cell-based", "settings": "786-0, Renal Cancer"}, "[24]": {"tested_on": "ACHN", "experiment": "NCI human tumor cell panel: ACHN (Renal Cancer)", "format": "cell-based", "settings": "Renal Cancer"}, "[25]": {"tested_on": "SN12C", "experiment": "NCI human tumor cell panel: SN12C (Renal Cancer)", "format": "cell-based", "settings": "Renal Cancer"}, "[26]": {"tested_on": "TK-10", "experiment": "NCI human tumor cell panel: TK-10 (Renal Cancer)", "format": "cell-based", "settings": "TK-10, Renal Cancer"}, "[27]": {"tested_on": "PC-3", "experiment": "NCI human tumor cell panel: PC-3 (Prostate Cancer)", "format": "cell-based", "settings": "PC-3, Prostate Cancer"}, "[28]": {"tested_on": "MCF7/ADR-RES", "experiment": "NCI human tumor cell panel: MCF7/ADR-RES (Breast Cancer)", "format": "cell-based", "settings": "Breast Cancer"}, "[29]": {"tested_on": "HS 578T", "experiment": "NCI human tumor cell panel: HS 578T (Breast Cancer)", "format": "cell-based", "settings": "Breast Cancer"}, "[30]": {"tested_on": "BT-549", "experiment": "NCI human tumor cell panel: BT-549 (Breast Cancer)", "format": "cell-based", "settings": "BT-549, Breast Cancer"}, "[31]": {"tested_on": "HOP-92", "experiment": "NCI human tumor cell panel: HOP-92 (Non-Small Cell Lung Cancer)"}, "[32]": {"settings": "read-out: Log10 GI50 (converted)"}, "[33]": {"settings": "read-out: Log10 TGI (converted)"}}}
{"smiles": "O=Cc1ccc(-c2ccc(-c3ccc(C=O)[se]3)s2)[se]1", "note": "[NSC 676630]", "values": [{"measurement": "GI50", "setting": "[1]; [32]", "result": 3.39, "unit": "µM"}, {"measurement": "IC (TGI)", "setting": "[1]; [33]", "result": "> 100", "unit": "µM"}, {"measurement": "GI50", "setting": "[2]; [32]", "result": "> 100", "unit": "µM"}, {"measurement": "IC (TGI)", "setting": "[2]; [33]", "result": "> 100", "unit": "µM"}, {"measurement": "GI50", "setting": "[3]; [32]", "result": "> 100", "unit": "µM"}, {"measurement": "IC (TGI)", "setting": "[3]; [33]", "result": "> 100", "unit": "µM"}, {"measurement": "GI50", "setting": "[4]; [32]", "result": 87.1, "unit": "µM"}, {"measurement": "IC (TGI)", "setting": "[4]; [33]", "result": "> 100", "unit": "µM"}, {"measurement": "GI50", "setting": "[5]", "result": "> 100", "unit": "µM"}, {"measurement": "IC (TGI)", "setting": "[6]", "result": "> 100", "unit": "µM"}, {"measurement": "IC (TGI)", "setting": "[7]", "result": "> 100", "unit": "µM"}, {"measurement": "GI50", "setting": "[8]; [32]", "result": 0.129, "unit": "µM"}, {"measurement": "IC (TGI)", "setting": "[8]; [33]", "result": "> 100", "unit": "µM"}, {"measurement": "GI50", "setting": "[9]; [32]", "result": 3.02, "unit": "µM"}, {"measurement": "IC (TGI)", "setting": "[9]; [33]", "result": "> 100", "unit": "µM"}, {"measurement": "GI50", "setting": "[10]; [32]", "result": "> 100", "unit": "µM"}, {"measurement": "IC (TGI)", "setting": "[10]; [33]", "result": "> 100", "unit": "µM"}, {"measurement": "GI50", "setting": "[11]; [32]", "result": "> 100", "unit": "µM"}, {"measurement": "IC (TGI)", "setting": "[11]; [33]", "result": "> 100", "unit": "µM"}, {"measurement": "GI50", "setting": "[12]; [32]", "result": "> 100", "unit": "µM"}, {"measurement": "IC (TGI)", "setting": "[12]; [33]", "result": "> 100", "unit": "µM"}, {"measurement": "GI50", "setting": "[13]; [32]", "result": "> 100", "unit": "µM"}, {"measurement": "IC (TGI)", "setting": "[13]; [33]", "result": "> 100", "unit": "µM"}, {"measurement": "GI50", "setting": "[14]; [32]", "result": "> 100", "unit": "µM"}, {"measurement": "IC (TGI)", "setting": "[14]; [33]", "result": "> 100", "unit": "µM"}, {"measurement": "GI50", "setting": "[15]; [32]", "result": 67.6, "unit": "µM"}, {"measurement": "IC (TGI)", "setting": "[15]; [33]", "result": "> 100", "unit": "µM"}, {"measurement": "GI50", "setting": "[16]; [32]", "result": "> 100", "unit": "µM"}, {"measurement": "IC (TGI)", "setting": "[16]; [33]", "result": "> 100", "unit": "µM"}, {"measurement": "GI50", "setting": "[17]; [32]", "result": "> 100", "unit": "µM"}, {"measurement": "IC (TGI)", "setting": "[17]; [33]", "result": "> 100", "unit": "µM"}, {"measurement": "GI50", "setting": "[18]; [32]", "result": 0.275, "unit": "µM"}, {"measurement": "IC (TGI)", "setting": "[18]; [33]", "result": 0.676, "unit": "µM"}, {"measurement": "GI50", "setting": "[19]; [32]", "result": 0.263, "unit": "µM"}, {"measurement": "IC (TGI)", "setting": "[19]; [33]", "result": "> 100", "unit": "µM"}, {"measurement": "GI50", "setting": "[20]; [32]", "result": 1.48, "unit": "µM"}, {"measurement": "IC (TGI)", "setting": "[20]; [33]", "result": "> 100", "unit": "µM"}, {"measurement": "GI50", "setting": "[21]; [32]", "result": 0.132, "unit": "µM"}, {"measurement": "IC (TGI)", "setting": "[21]; [33]", "result": 0.447, "unit": "µM"}, {"measurement": "GI50", "setting": "[22]; [32]", "result": 33.1, "unit": "µM"}, {"measurement": "IC (TGI)", "setting": "[22]; [33]", "result": "> 100", "unit": "µM"}, {"measurement": "GI50", "setting": "[23]; [32]", "result": "> 100", "unit": "µM"}, {"measurement": "IC (TGI)", "setting": "[23]; [33]", "result": "> 100", "unit": "µM"}, {"measurement": "GI50", "setting": "[24]; [32]", "result": "> 100", "unit": "µM"}, {"measurement": "IC (TGI)", "setting": "[24]; [33]", "result": "> 100", "unit": "µM"}, {"measurement": "GI50", "setting": "[25]; [32]", "result": "> 100", "unit": "µM"}, {"measurement": "IC (TGI)", "setting": "[25]; [33]", "result": "> 100", "unit": "µM"}, {"measurement": "GI50", "setting": "[26]; [32]", "result": 0.38, "unit": "µM"}, {"measurement": "IC (TGI)", "setting": "[26]; [33]", "result": 1.62, "unit": "µM"}, {"measurement": "GI50", "setting": "[27]; [32]", "result": "> 100", "unit": "µM"}, {"measurement": "IC (TGI)", "setting": "[27]; [33]", "result": "> 100", "unit": "µM"}, {"measurement": "GI50", "setting": "[28]; [32]", "result": 79.4, "unit": "µM"}, {"measurement": "IC (TGI)", "setting": "[28]; [33]", "result": "> 100", "unit": "µM"}, {"measurement": "GI50", "setting": "[29]; [32]", "result": "> 100", "unit": "µM"}, {"measurement": "IC (TGI)", "setting": "[29]; [33]", "result": "> 100", "unit": "µM"}, {"measurement": "GI50", "setting": "[30]; [32]", "result": 63.1, "unit": "µM"}, {"measurement": "IC (TGI)", "setting": "[30]; [33]", "result": "> 100", "unit": "µM"}, {"measurement": "GI50", "setting": "[31]; HOP-92, read-out: Log10 GI50 (converted)", "result": "> 100", "unit": "µM"}, {"measurement": "IC (TGI)", "setting": "[31]; HOP-92, read-out: Log10 TGI", "result": "> 100", "unit": "µM"}]}
